From US20240270741A1 (Cogent Biosciences, Inc., priority 2023, published 2024)

Target: FGFR2 (Homo sapiens, UniProt P21802)
Test: FGFR wild type enzyme assay (HTRF KinEASE-TK), FGFR2
Details: Enz FGFR2 (nM), FGFR2 wild type enzyme assay

FGFR2, sequence (P21802 399-821 limits assumed): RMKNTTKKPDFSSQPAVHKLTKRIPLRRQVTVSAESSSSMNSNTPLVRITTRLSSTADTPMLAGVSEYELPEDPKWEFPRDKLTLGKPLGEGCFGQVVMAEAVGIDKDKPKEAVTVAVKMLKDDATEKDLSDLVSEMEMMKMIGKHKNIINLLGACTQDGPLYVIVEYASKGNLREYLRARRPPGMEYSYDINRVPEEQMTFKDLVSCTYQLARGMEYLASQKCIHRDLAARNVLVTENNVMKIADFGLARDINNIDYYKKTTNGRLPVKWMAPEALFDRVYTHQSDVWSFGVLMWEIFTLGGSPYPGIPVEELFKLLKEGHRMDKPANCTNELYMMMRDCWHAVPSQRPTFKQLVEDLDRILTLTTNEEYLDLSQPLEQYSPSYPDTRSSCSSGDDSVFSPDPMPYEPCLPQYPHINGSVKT

SMILES | IC50
Cc1c(-c2cc(Sc3ccc(F)cc3C#N)c3c(C#N)cnn3c2)cnn1[C@@H]1CCC(C)(C)NC1 [Example 528, 4-(2-cyano-4-fluoro-phenyl)sulfanyl-6-[1-[(3R)-6,6-dimethyl-3-piperidyl]-5-methyl-pyrazol-4-yl]pyrazolo[1,5-a]pyridine-3-carbonitrile] | 2.5 nM
N#Cc1cnn2cc(-c3cn([C@H]4CCCNC4)nc3CO)cc(Sc3ncccc3F)c12 [Example 530, 4-[(3-fluoro-2-pyridyl)sulfanyl]-6-[3-(hydroxymethyl)-1-[(3S)-3-piperidyl]pyrazol-4-yl]pyrazolo[1,5-a]pyridine-3-carbonitrile] | 69 nM
Cc1c(-c2cc(Sc3ccc(F)cc3C#N)c3c(C#N)cnn3c2)cnn1C[C@H](O)CO [Example 531, (S)-4-((2-cyano-4-fluorophenyl)thio)-6-(1-(2,3-dihydroxypropyl)-5-methyl-1H-pyrazol-4-yl)pyrazolo[1,5-a]pyridine-3-carbonitrile] | 11 nM
C[C@H](O)C(=O)N1CCC[C@H](n2cc(-c3cc(Sc4ccccc4C#N)c4c(C#N)cnn4c3)cn2)C1 [Example 532, 4-((2-cyanophenyl)thio)-6-(1-((S)-1-((S)-2-hydroxypropanoyl)piperidin-3-yl)-1H-pyrazol-4-yl)pyrazolo[1,5-a]pyridine-3-carbonitrile] | 0.5 nM
C[C@H](O)C(=O)N1CCC[C@@H](n2cc(-c3cc(Sc4ccccc4C#N)c4c(C#N)cnn4c3)cn2)C1 [Example 533, 4-((2-cyanophenyl)thio)-6-(1-((R)-1-((S)-2-hydroxypropanoyl)piperidin-3-yl)-1H-pyrazol-4-yl)pyrazolo[1,5-a]pyridine-3-carbonitrile] | 1 nM
N#Cc1ccccc1Sc1cc(-c2cnn([C@@H]3CCCN(CCO)C3)c2)cn2ncc(C#N)c12 [Example 534, (R)-4-((2-cyanophenyl)thio)-6-(1-(1-(2-hydroxyethyl)piperidin-3-yl)-1H-pyrazol-4-yl)pyrazolo[1,5-a]pyridine-3-carbonitrile] | 0.5 nM
N#Cc1ccccc1Sc1cc(-c2cnn([C@@H]3CCCNC3)c2)cn2ncc(C#N)c12 [Example 535, (R)-4-((2-cyanophenyl)thio)-6-(1-(piperidin-3-yl)-1H-pyrazol-4-yl)pyrazolo[1,5-a]pyridine-3-carbonitrile] | 0.4 nM
N#Cc1ccccc1Sc1cc(-c2cnn([C@@H]3CCCN(C(=O)CO)C3)c2)cn2ncc(C#N)c12 [Example 536, (R)-4-((2-cyanophenyl)thio)-6-(1-(1-(2-hydroxyacetyl)piperidin-3-yl)-1H-pyrazol-4-yl)pyrazolo[1,5-a]pyridine-3-carbonitrile] | 1 nM
CC(=O)N1CCC[C@@H](n2cc(-c3cc(Sc4ccccc4C#N)c4c(C#N)cnn4c3)cn2)C1 [Example 537, (R)-6-(1-(1-acetylpiperidin-3-yl)-1H-pyrazol-4-yl)-4-((2-cyanophenyl)thio)pyrazolo [1,5-a]pyridine-3-carbonitrile] | 1 nM
COCC(=O)N1CCC(n2cc(-c3cc(Sc4ccccc4C#N)c4c(C#N)cnn4c3)cn2)CC1 [Example 538, 4-((2-cyanophenyl)thio)-6-(1-(1-(2-methoxyacetyl)piperidin-4-yl)-1H-pyrazol-4-yl)pyrazolo[1,5-a]pyridine-3-carbonitrile] | 0.3 nM
Cc1ccc(-c2cc(Sc3ccccc3C#N)c3c(C#N)cnn3c2)cn1 [Example 539] | 9 nM
CNC(=O)Cn1cc(-c2cc(Sc3ccccc3C#N)c3c(C#N)cnn3c2)cn1 [Example 540] | 1 nM
CN(C)C(=O)Cn1cc(-c2cc(Sc3ccccc3C#N)c3c(C#N)cnn3c2)cn1 [Example 541, 2-(4-(3-cyano-4-((2-cyanophenyl)thio)pyrazolo [1,5-a]pyridin-6-yl)-1H-pyrazol-1-yl)-N,N-dimethylacetamide] | 1 nM
N#Cc1ccccc1Sc1cc(-c2cnn(C3CCOCC3)c2)cn2ncc(C#N)c12 [Example 542, 4-((2-cyanophenyl)thio)-6-(1-(tetrahydro-2H-pyran-4-yl)-1H-pyrazol-4-yl)pyrazolo[1,5-a]pyridine-3-carbonitrile] | 0.4 nM
Cc1c(-c2cc(Sc3ccc(F)cc3C#N)c3c(C#N)cnn3c2)cnn1[C@H]1CC[C@H](OP(=O)(O)O)CC1 [Example 543, [4-[4-[3-cyano-4-(2-cyano-4-fluoro-phenyl)sulfanyl-pyrazolo[1,5-a]pyridin-6-yl]-5-methylpyrazol-1-yl]cyclohexyl] dihydrogen phosphate] | 2 nM
N#Cc1ccccc1Sc1cc(-c2cnn(C[C@H](O)CO)c2)cn2ncc(C#N)c12 [Example 544, (S)-4-((2-cyanophenyl)thio)-6-(1-(2,3-dihydroxypropyl)-1H-pyrazol-4-yl)pyrazolo[1,5-a]pyridine-3-carbonitrile] | 1 nM
Cn1ncc(-c2cc(Sc3ncccc3F)c3c(C#N)cnn3c2)c1N [Example 545, 6-(5-amino-1-methyl-pyrazol-4-yl)-4-[(3-fluoro-2-pyridyl)sulfanyl]pyrazolo[1,5-a]pyridine-3-carbonitrile] | 3 nM
N#Cc1cc(F)ccc1Sc1cc(-c2cnn(-c3cn[nH]c3)c2)cn2ncc(C#N)c12 [Example 546, 6-(1′H-[1,4′-bipyrazol]-4-yl)-4-((2-cyano-4-fluorophenyl)thio)pyrazolo [1,5-a]pyridine-3-carbonitrile] | 6 nM
Cc1c(-c2cc(Sc3ccc(F)cc3C#N)c3c(C#N)cnn3c2)cnn1C1CCOC1 (stereo not shown) [Example 547, 4-((2-cyano-4-fluorophenyl)thio)-6-(5-methyl-1-(tetrahydrofuran-3-yl)-1H-pyrazol-4-yl)pyrazolo[1,5-a]pyridine-3-carbonitrile] | 3 nM
N#Cc1ccccc1Sc1cc(-c2ccc(N3CCC(O)CC3)nc2)cn2ncc(C#N)c12 [Example 548, 4-((2-cyanophenyl)thio)-6-(6-(4-hydroxypiperidin-1-yl)pyridin-3-yl)pyrazolo[1,5-a]pyridine-3-carbonitrile] | 0.4 nM
N#Cc1ccccc1Sc1cc(-c2ccc(N3CCCC3)nc2)cn2ncc(C#N)c12 [Example 549, 4-((2-cyanophenyl)thio)-6-(6-(pyrrolidin-1-yl)pyridin-3-yl)pyrazolo[1,5-a]pyridine-3-carbonitrile] | 1 nM
N#Cc1cnn2cc(-c3ccc(N4CC[C@H](O)C4)nc3)cc(Sc3ncccc3F)c12 [Example 550, (S)-4-((3-fluoropyridin-2-yl)thio)-6-(6-(3-hydroxypryrrolidin-1-yl)pyridin-3-yl)pyrazolo[1,5-a]pyridine-3-carbonitrile] | 1.5 nM
N#Cc1cnn2cc(-c3ccc(N4CC[C@@H](O)C4)nc3)cc(Sc3ncccc3F)c12 [Example 551, (R)-4-((3-fluoropyridin-2-yl)thio)-6-(6-(3-hydroxypyrrolidin-1-yl)pyridin-3-yl)pyrazolo[1,5-a]pyridine-3-carbonitrile] | 2 nM
N#Cc1cnn2cc(-c3ccc(N4CCC(O)CC4)nc3)cc(Sc3ncccc3F)c12 [Example 552, 4-((3-fluoropyridin-2-yl)thio)-6-(6-(4-hydroxypiperidin-1-yl)pyridin-3-yl)pyrazolo[1,5-a]pyridine-3-carbonitrile] | 1 nM
N#Cc1cnn2cc(-c3ccc(N4CCNCC4)nc3)cc(Sc3ncccc3F)c12 [Example 553, 4-((3-fluoropyridin-2-yl)thio)-6-(6-(piperazin-1-yl)pyridin-3-yl)pyrazolo[1,5-a]pyridine-3-carbonitrile] | 1 nM
